Results from ChEMBL document CHEMBL1155405, “Rigidified 2-aminopyrimidines as histamine H4 receptor antagonists: effects of substitution about the rigidifying ring” (Bioorg Med Chem Lett, 2010).

Columns and labels:
[1] = biological target: T1, Histamine H4 receptor (Homo sapiens, UniProt Q9H3N8); conditions: HEK293
[2] = biological target: Histamine H4 receptor (Rattus norvegicus) (UniProt Q91ZY1); assay: Antagonist activity at rat histamine H4 receptor assessed as decrease in intracellular calcium by FLIPR; type: functional, cell-based
Chain of Histamine H4 receptor (Rattus norvegicus) (Q91ZY1 whole entry): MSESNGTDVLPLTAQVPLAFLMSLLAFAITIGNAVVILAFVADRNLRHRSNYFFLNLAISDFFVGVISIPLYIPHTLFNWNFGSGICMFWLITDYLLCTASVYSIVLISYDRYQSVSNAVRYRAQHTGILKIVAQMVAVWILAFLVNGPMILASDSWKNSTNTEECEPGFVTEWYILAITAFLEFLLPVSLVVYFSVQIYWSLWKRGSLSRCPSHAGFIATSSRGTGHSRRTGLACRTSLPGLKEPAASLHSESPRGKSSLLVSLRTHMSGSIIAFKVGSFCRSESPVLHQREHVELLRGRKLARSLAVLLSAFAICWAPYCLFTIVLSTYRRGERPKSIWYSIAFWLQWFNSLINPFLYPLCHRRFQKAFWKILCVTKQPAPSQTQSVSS

[3] = biological target: Histamine H4 receptor (Rattus norvegicus) (UniProt Q91ZY1); assay: Antagonist activity at rat histamine H4 receptor assessed as decrease in intracellular calcium by FLIPR relative to histamine; type: functional, cell-based; design: concentration or dose not given beside the values
[4] = biological target: Histamine H3 receptor (Homo sapiens, UniProt Q9Y5N1); assay: Displacement of [3H]NAMH from human histamine H3 receptor expressed in C6 cells after 1 hr by liquid scintillation counting; type: cell-based
Chain of Histamine H3 receptor (Homo sapiens, UniProt Q9Y5N1) (Q9Y5N1 whole entry): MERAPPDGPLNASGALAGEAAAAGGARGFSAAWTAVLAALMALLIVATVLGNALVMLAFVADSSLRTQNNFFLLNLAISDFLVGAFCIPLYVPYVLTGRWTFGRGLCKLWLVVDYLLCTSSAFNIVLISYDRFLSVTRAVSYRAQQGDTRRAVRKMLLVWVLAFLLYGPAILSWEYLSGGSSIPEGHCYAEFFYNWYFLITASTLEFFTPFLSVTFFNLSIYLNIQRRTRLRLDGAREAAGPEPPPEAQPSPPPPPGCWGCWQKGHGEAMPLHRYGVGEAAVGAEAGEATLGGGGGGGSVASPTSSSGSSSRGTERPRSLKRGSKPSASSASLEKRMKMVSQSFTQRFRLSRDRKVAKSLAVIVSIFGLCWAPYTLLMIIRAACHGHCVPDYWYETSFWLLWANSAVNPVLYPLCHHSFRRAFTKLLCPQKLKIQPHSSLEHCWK

[5] = biological target: Histamine H3 receptor (Rattus norvegicus, UniProt Q9QYN8); assay: Displacement of [3H]NAMH from rat histamine H3 receptor expressed in C6 cells after 1 hr by liquid scintillation counting; type: cell-based
Chain of Histamine H3 receptor (Rattus norvegicus, UniProt Q9QYN8) (Q9QYN8 whole entry): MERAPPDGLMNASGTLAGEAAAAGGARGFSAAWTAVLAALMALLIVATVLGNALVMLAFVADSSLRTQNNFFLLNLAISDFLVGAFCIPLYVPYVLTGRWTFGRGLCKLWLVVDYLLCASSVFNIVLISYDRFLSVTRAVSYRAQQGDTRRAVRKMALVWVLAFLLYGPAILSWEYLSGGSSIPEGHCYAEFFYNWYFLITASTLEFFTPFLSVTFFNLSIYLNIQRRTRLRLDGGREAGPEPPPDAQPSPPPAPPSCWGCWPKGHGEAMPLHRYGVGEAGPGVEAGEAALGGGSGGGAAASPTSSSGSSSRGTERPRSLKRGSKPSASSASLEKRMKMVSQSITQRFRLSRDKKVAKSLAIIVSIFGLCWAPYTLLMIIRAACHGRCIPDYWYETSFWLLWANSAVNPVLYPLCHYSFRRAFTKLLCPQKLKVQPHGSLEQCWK

[6] = Lipophilicity, log D at pH7.5; type: physicochemical; conditions: buffer, pH 7.5
[7] = biological target: T2, Histamine H4 receptor (Mus musculus) (UniProt Q91ZY2); assay: Antagonist activity at mouse histamine H4 receptor assessed as decrease in intracellular calcium by FLIPR; type: functional, cell-based
T2 sequence (whole entry): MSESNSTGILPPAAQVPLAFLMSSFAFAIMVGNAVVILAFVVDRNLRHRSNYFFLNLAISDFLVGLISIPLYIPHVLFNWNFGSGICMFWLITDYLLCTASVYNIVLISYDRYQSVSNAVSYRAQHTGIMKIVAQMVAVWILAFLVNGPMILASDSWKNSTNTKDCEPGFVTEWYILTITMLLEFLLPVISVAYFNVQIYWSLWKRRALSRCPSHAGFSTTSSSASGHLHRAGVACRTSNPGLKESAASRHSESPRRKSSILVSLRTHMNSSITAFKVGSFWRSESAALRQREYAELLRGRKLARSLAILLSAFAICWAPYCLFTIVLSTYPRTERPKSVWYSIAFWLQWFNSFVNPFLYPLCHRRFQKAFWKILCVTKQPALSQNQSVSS

[8] = test system: Mus musculus; assay: Inhibition of clobenpropit-induced scratching in hind paw of ip dosed mouse administered 30 mins before; type: functional
[9] = biological target: T1, Histamine H4 receptor; assay: Agonist activity at human histamine H4 receptor expressed in HEK293 cells coexpressing Galphaqi5 assessed as increase in intracellular calcium by FLIPR relative to histamine
[10] = biological target: Histamine H4 receptor (Rattus norvegicus, UniProt Q91ZY1); assay: Displacement of [3H]-histamine from rat histamine H4 receptor after 1 hr by liquid scintillation counting
Chain of Histamine H4 receptor (Rattus norvegicus, UniProt Q91ZY1) (Q91ZY1 whole entry): as the sequence (Q91ZY1 whole entry) above

[11] = biological target: T1, Histamine H4 receptor; assay: Displacement of [3H]-histamine from human histamine H4 receptor expressed in HEK293 cells after 1 hr by liquid scintillation counting; type: cell-based

SMILES	pKb [1]	pKb [2]	Activity [3]	also measured
Nc1nc(N2CC[C@@H](N)C2)c2c(n1)C1(CCCCC1)CCC2	7.33	< 4.96	84%	
Nc1nc(N2C[C@H]3CCCN[C@H]3C2)c2c(n1)C1(CCCC1)CCC2	8.07	< 6.6	35%	
CN[C@@H]1CCN(c2nc(N)nc3c2CCCC(c2ccccc2)C3)C1 (stereo not given in full)				Ki [4]: 0.224 µM; Ki [5]: 0.105 µM
CN1CCC(Oc2nc(N)nc3c2CCCC32CCCC2)CC1	7.7	< 5.48	86%	
Nc1nc(N2C[C@H]3CNC[C@H]3C2)c2c(n1)C1(CCCC1)CCC2 (stereo in doubt; 33)	5.96	5.13	53%	
Nc1nc(N2CC(N)C2)c2c(n1)C1(CCCC1)CCC2	< 4.16	4.63	48%	
CN(C)CCOc1nc(N)nc2c1CCCC21CCCC1	8.11	< 6	88%	
Nc1nc(N2CCNCC2)c2c(n1)C1(CCCC1)CCC2	8.56	5.42	87%	logD [6]: 2.2
Nc1nc2c(c(N3CCNCC3)n1)CCCCC2c1ccccc1 (stereo not given)	7.24	7.26		Ki [4]: 2.24 µM; Ki [5]: 0.661 µM; pKb [7]: 7.34; logD [6]: 1.73; ED50 [8]: 10 µmol/kg
CNC1CN(c2nc(N)nc3c2CCCCC3c2ccccc2)C1 (stereo not given)				logD [6]: 2.05
Nc1nc(N2CCNCC2)c2c(n1)C1(CCC2)Cc2ccccc2C1	4.57	4.86	135%	Activity [9]: 49%
Nc1nc2c(c(N3C[C@H]4CCCN[C@H]4C3)n1)CCCCC2c1ccccc1 (stereo not given in full)	7.88	8.24		pKb [7]: 7.9; ED50 [8]: 3 µmol/kg
Nc1nc(N2CC[C@@H](N)C2)c2c(n1)C1(CCC2)Cc2ccccc2C1	6.3	6.09		
Nc1nc(N2C[C@H]3CNC[C@H]3C2)c2c(n1)C1(CCCC1)CCC2 (stereo in doubt; 34)	5.99	5.65	48%	
CNC1CN(c2nc(N)nc3c2CCCC32CCCC2)C1	8.34	7.6	46%	Ki [10]: 0.00145 µM; Ki [11]: 0.00151 µM; Ki [4]: 0.0631 µM; Ki [5]: 0.00676 µM; logD [6]: 1.6
Nc1nc2c(c(N3CC4CCCNC4C3)n1)CCCCC2c1ccccc1 (stereo not given)	7.59			Ki [10]: 0.00269 µM; Ki [11]: 0.00708 µM
Nc1nc(N2CCNCC2)c2c(n1)C1(CCCCC1)CCC2	7.32	< 4.86	105%	
COC(=O)C1(N)CCN(c2nc(N)nc3c2CCCC32CCCC2)CC1	4.9	4.77	52%	

Now from value to compound, other results behind:

pKb [1]	pKb [2]	Activity [3]	SMILES	also measured
8.01	< 5.32	77%	Nc1nc(N2CCCNCC2)c2c(n1)C1(CCCC1)CCC2	
7.66	6.9	84%	CN1CCC(Nc2nc(N)nc3c2CCCC32CCCC2)CC1	
7	5.81	50%	Nc1nc(N2C[C@H]3CCCN[C@H]3C2)c2c(n1)C1(CCCCC1)CCC2	
7.28	6.87	63%	Nc1nc(N2CC[C@H](N)C2)c2c(n1)C1(CCCC1)CCC2	
8.54	7.48	58%	CN[C@@H]1CCN(c2nc(N)nc3c2CCCC32CCCC2)C1	Ki [10]: 0.00263 µM; Ki [11]: 0.002 µM; Ki [4]: 0.105 µM; Ki [5]: 0.0724 µM
8.57	6.76	71%	Nc1nc(N2CC[C@@H](N)C2)c2c(n1)C1(CCCC1)CCC2	Ki [4]: 0.295 µM; Ki [5]: 0.0794 µM; pKb [7]: 7.82; ED50 [8]: 1 µmol/kg
< 4.67	< 4.68		Nc1nc(N2CCC(N)(C(=O)O)CC2)c2c(n1)C1(CCCC1)CCC2	
